Assay [1] in a line: FRAP (ferric reducing antioxidant power) assay. The following applies: 20 µM, 1 h incubation; ratio of concentrations of Trolox and test compound with same effect. Here is the method:
The FRAP (ferric reducing antioxidant power) assay proposed by Benzie and Strain [80, 81] was modified to be performed in 96-well microplates. The FRAP reagent contained 2.5 mL of 10 mM TPTZ (2,4,6-tris(2-pyridyl)-s-triazine (Sigma-Aldrich) solution in 40 mM HCl, 2.5 mL of 20 mM FeCl3 (Sigma-Aldrich) in distilled water and 25 mL of 0.3 M acetate buffer (pH 3.6). In 96-well microplates, 10 µL aliquots of the substance under investigation (compounds 7, 8 or reference substance) dissolved in DMSO (0.5 mM) were placed in quadruplicate. The FRAP reagent (240 µL) freshly prepared and warmed to 37°C was added to three of these samples, while the same volume of acetate buffer was added to the fourth one (blank). Consequently, the concentration of the substance in a plate was 20 µM. The absorbance at 600 nm was monitored spectrophotometrically with a FLUOStar OPTIMA microplate reader at 37°C for an hour with an interval of 5–10 min. Data in Table 2 are given for 1 h of incubation of compounds with FRAP reagent. The absorbances of the blanks and those of the mixture of 240 µL FRAP reagent plus 10 µL DMSO were subtracted from the absorbances of the samples at each time interval to calculate the absorbance change. Standard antioxidants Trolox and BHT dissolved in DMSO and analyzed as described above were used as reference compounds. A calibration curve with linear formula y = 0.03x (R^2 = 0.998, p < 0.0001) was obtained for Trolox solution in DMSO in the range 2.5–100 µM and the results were expressed as FRAP units (the values calculated as the ratio of the concentrations of Trolox and the test compound resulting in the same effect.)

A further assay deals with T1, EeAChE PAS (Electrophorus electricus, UniProt O42275).
T1 construct: Electric eel AChE (EeAChE, type VI-S, lyophilized powder); purchased Sigma-Aldrich type VI-S; host or cells: electric eel
The class given is binding. The following applies: compound concentration 20 µM. The protocol:
Electric eel AChE (EeAChE, type VI-S, lyophilized powder, Sigma-Aldrich, Saint Louis, MO, USA) was used owing to its high degree of purification, high activity, and lower cost compared to human AChE.
The blank contained propidium iodide of the same concentration in 1 mM Tris-HCl buffer pH 8.0. The measurements were carried out in triplicate on a FLUOStar Optima microplate reader, and the results were calculated by formula (1):% Displacement = 100 − (IFAChE+ Propidium + inhibitor / IFAChE + Propidium) × 100(1) where IFAChE + Propidium is the fluorescence intensity of the propidium associated with AChE in the absence of the test compound (taken as 100%), and IFAChE + Propidium + inhibitor is the fluorescence intensity of the propidium associated with AChE in the presence of the test compound.

For a further assay, the target named is T2, Human erythrocyte AChE (Homo sapiens, UniProt P22303).
T2 construct: AChE from human erythrocytes was used; purchased Sigma-Aldrich; host or cells: human erythrocytes
Nature of the assay: biochemical. The protocol: (§1) Measurements were performed with a FLUOStar Optima microplate reader (BMG Labtech, Ortenberg, Germany). Compounds were dissolved in DMSO, the incubation mixture contained 2% solvent.

Another assay addresses T3, Equine serum BChE (Equus caballus, UniProt P81908).
T3 construct: equine serum BChE; purchased Sigma-Aldrich; host or cells: equine serum
The experiment in a line: biochemical. The protocol: as §1

The subject of a further assay is Porcine liver CES. Nature of the assay: In vitro CES inhibition, 4-NPA substrate. The assay is classed as biochemical. Particulars: compound concentration 20 µM; n.a. = not active. Here is the method: as §1
Assay [2] is described as follows: ABTS radical cation scavenging activity assay. Here is the method:
Radical scavenging activity of the compounds was assessed using the ABTS radical decolorization assay with some modifications. ABTS was purchased from Tokyo Chemical Industry Co., Ltd. (Tokyo, Japan), potassium persulfate (dipotassium peroxodisulfate), Trolox (6-hydroxy-2,5,7,8-tetramethychroman-2-carboxylic acid), and HPLC-grade ethanol were obtained from Sigma-Aldrich. Aqueous solutions were prepared using deionized water.
The solution of cation radical ABTS^•+ was produced by incubation of ABTS with potassium persulfate in deionized water for 12–16 h at room temperature in the dark. Radical scavenging capacity of the compounds was analyzed by mixing 10 μL of compound with 240 μL of ABTS^•+ working solution in ethanol (100 μM final concentration). The reaction was monitored for an hour with an interval of 5–10 min. Data are given for 1 h of incubation of compounds with ABTS^•+. The reduction in absorbance was measured spectrophotometrically at 734 nm using a xMark microplate UV/VIS microplate spectrophotometer (Bio-Rad, Hercules, CA, USA).
Ethanol blanks were run in each assay. Values were obtained from three replicates of each sample and three independent experiments. Standard antioxidants Trolox and BHT were used as reference compounds.
Antioxidant capacity as Trolox equivalent (TEAC) values was determined as the ratio between the slopes obtained from the linear correlation of the ABTS radical absorbance with the concentrations of tested compounds and Trolox. […] The compounds were tested in the concentration range of 0.1–100 µM.

Assay [3] deals with mouse brain homogenate. Nature of the assay: Luminol chemiluminescence assay in mouse brain homogenate (TBHP-initiated). Particulars: compound concentration 20 µM; mice brain homogenate. The protocol:
(§2) The work was carried out in accordance with the EU Directive 2010/63/EU. Hybrid BDF1 mice (about 6 months old) were sacrificed by decapitation. Each brain was rapidly excised, frozen in liquid nitrogen, and stored at −80°C until use. The brains were thawed and homogenized using a Wisd WiseTis HG-15D homogenizer for 2 min in a buffer (0.01 M PBS, pH 7.4 or 0.1 M Tris-HCl, pH 7.4). Protein concentrations were determined by the Lowry method.
Luminol-dependent chemiluminescence produced by mouse brain homogenates was measured using a 1250 Luminometer (LKB Wallac, Turku, Finland) according to the assay by Di Meo et al. with minor modifications. The reaction mixture consisted of mouse brain homogenate (protein concentration 0.1 mg/mL) in 0.1 M Tris-HCl (Sigma-Aldrich), pH 7.4, luminol (Sigma-Aldrich) (0.05 mM), TBHP (Sigma-Aldrich) (0.073 M) and tested compounds at a concentration of 20 μM. This was placed in a light-proof luminometer chamber and the background reading was recorded. All measurements were carried out at 37°C. The gain control was set to give a reading of 10 mV using a built-in standard. The free radical content in mouse brain homogenate was evaluated by the change in the light sum (the area under the kinetic curve of luminescence intensity for the entire luminescence time). All compounds were examined at least in triplicate. The effects of tested compounds were measured as the percentage decrease in the light sum relative to the control (a sample with no compound added).

Assay [4] relates to mouse brain homogenate. Nature of the assay: TBARS assay, spontaneous lipid peroxidation in mouse brain homogenate. The following applies: read-out: Inhibition of Spontaneous Lipid Peroxidation in Mice Brain Homogenate, TBARS Assay, IC50. Here is the method:
as §2
The procedure was performed in accordance with the method of Ohkawa et al. with minor modifications. Briefly, mouse brain homogenate (protein concentration 1 mg/mL) in PBS (0.1 M, pH 7.4) was incubated for 30 min at 37°C with tested conjugates, and the reaction was terminated by addition of 0.4 mL of 17% (w/v) trichloroacetic acid (Sigma-Aldrich). Following centrifugation for 20 min at 1300× g, 0.5 mL of 0.8% (w/v) of TBA (Sigma-Aldrich) was added to 1 mL of supernatant, heated for 30 min at 95°C and then cooled to RT. The optical density of the TBARS, which corresponds to the produced MDA, was measured at 532 nm against a blank using an Agilent Cary 60 UV-Vis spectrophotometer (Agilent, Santa Clara, CA, USA). The MDA concentration was calculated using an extinction coefficient of 1.56 × 10^5 M^−1cm^−1. Trolox and BHT were used as reference antioxidants. Compounds were dissolved in DMSO (Sigma-Aldrich) and tested in a concentration range 0.01–100 μM. All compounds were examined at least in triplicate.

For assay [5], the system named is AChE-induced Aβ aggregation. The arrangement: method as in PMID 12527333. The following applies: at 100 μM; cited from earlier work.
In a further assay the test system is AChE. The arrangement: method as in PMID 15658850. Particulars: read-out: anti-AChE activity, IC50; cited from earlier work.
Assay [6] has as its system AChE-induced Aβ aggregation. The arrangement: method as in PMID 15658850. The following applies: cited from earlier work.

These results are taken from PMC7763995 (Molecules, 2020).

SMILES strings stand for the structures.

T1 sequence (O42275 24-633): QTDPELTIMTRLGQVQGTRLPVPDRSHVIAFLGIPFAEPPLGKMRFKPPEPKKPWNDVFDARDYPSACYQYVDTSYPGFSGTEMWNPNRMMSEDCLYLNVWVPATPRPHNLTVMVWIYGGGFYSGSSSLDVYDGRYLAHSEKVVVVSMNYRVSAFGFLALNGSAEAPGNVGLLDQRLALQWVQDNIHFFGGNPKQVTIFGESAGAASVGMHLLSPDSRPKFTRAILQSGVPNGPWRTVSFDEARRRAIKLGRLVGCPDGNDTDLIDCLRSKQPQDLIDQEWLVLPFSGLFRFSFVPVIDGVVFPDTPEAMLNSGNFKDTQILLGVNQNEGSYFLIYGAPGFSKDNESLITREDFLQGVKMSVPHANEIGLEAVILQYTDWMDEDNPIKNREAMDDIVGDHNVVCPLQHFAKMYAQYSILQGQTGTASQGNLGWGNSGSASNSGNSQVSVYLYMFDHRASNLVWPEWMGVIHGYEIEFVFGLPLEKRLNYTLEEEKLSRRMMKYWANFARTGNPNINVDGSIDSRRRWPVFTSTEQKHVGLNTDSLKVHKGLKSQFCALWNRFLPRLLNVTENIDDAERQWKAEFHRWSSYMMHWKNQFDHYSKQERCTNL
T3 sequence (P81908 whole entry): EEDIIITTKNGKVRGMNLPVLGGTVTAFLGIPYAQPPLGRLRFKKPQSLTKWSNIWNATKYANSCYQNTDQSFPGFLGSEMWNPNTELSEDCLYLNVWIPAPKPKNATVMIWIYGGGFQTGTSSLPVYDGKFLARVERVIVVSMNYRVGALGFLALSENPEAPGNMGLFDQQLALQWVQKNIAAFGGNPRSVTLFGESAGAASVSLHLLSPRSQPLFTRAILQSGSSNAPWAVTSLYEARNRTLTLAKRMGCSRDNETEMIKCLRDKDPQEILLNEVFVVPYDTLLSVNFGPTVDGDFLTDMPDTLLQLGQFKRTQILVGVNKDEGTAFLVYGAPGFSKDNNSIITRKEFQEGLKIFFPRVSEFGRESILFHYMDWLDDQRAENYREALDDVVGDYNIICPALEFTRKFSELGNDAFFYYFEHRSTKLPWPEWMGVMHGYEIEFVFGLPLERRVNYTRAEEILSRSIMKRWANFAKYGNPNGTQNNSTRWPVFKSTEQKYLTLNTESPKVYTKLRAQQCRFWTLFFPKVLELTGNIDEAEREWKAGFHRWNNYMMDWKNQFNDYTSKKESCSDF
T2 sequence (P22303 32-617 isoform P22303-2 limits assumed): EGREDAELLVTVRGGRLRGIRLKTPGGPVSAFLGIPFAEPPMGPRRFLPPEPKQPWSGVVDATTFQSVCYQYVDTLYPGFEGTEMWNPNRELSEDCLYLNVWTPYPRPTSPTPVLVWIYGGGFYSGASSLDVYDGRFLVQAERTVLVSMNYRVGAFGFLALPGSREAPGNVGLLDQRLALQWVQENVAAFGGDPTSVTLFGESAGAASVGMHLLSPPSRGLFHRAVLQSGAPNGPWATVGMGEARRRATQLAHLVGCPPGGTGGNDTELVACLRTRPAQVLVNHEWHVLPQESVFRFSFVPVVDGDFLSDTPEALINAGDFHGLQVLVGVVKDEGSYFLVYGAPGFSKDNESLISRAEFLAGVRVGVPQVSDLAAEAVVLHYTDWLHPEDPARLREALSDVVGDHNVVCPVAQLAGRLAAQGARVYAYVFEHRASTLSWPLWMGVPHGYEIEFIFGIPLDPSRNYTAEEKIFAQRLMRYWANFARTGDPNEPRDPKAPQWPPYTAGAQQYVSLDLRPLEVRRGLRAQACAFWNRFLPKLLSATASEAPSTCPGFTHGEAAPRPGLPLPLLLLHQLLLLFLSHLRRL

Turning to `CC(C)(C)c1cc(CNCCNc2c3c(nc4ccccc24)CCCCC3)cc(C(C)(C)C)c1O` [Compound 8c, 2,6-Di-tert-butyl-4-{[2-(7,8,9,10-tetrahydro-6H-cyclohepta[b]quinolin-11-ylamino)-ethylamino]-methyl}-phenol], the “Ferric Reducing Antioxidant Power, FRAP Units” value in assay [1] is 0.80 ± 0.06. Further, the “Displacement of Propidium from EeAChE PAS (%)” value at EeAChE PAS is 13.6 ± 1.2%. Further, the IC50 against Human erythrocyte AChE turned out to be 1.9 ± 0.16 µM; at Equine serum BChE, 0.084 ± 0.008 µM; in assay [2] (1 h incubation), 14.1 ± 0.8 µM; in the assay on mouse brain homogenate [4], 9.38 ± 0.12 µM. For the same molecule, in the assay with Porcine liver CES, the “Porcine Liver CES, (%) inhibition” value came out at 26.0 ± 1.9%. In [2], the “Time of maximum binding of the ABTS radical” value is 5 min. Besides, the “ABTS^•+-Scavenging Activity, TEAC” value in assay [2] (ratio of slopes test compound/Trolox, 1 h incubation) is recorded as 1.35 ± 0.04. The “Radical Scavenging Capacity in Luminol Chemiluminescence Assay, Luminescence Inhibition, %” value with mouse brain homogenate [3] was 91.0 ± 0.6%.
Take `CC[N+](C)(CC)CCC[n+]1c(-c2ccccc2)c2cc(N)ccc2c2ccc(N)cc21` [Propidium, propidium]: the “Decrease in AChE-induced Aβ aggregation” value in [5] is reported as 82%.
In the case of `O=C(CCCCC1CCSS1)NCCCNc1c2c(nc3cc(Cl)ccc13)CCCC2` (stereo not shown) [lipocrine], the figures for the IC50 (with AChE; in [6]) were 0.000253 µM and 45 µM, respectively.
